Experiments:
[1] = tested on: C. albicans; assay: Zone of inhibition assay of coated sutures; assay type: cell-based; conditions: coated 2-0 polyglactin 910 suture, 37° C. 48 hr
Procedure: (§1) A series of USP standard size 2-0 uncoated polyglactin 910 sutures were coated with coating compositions containing LAE. LAE stock solution was made in ethanol at the concentration of 10%. The coating solutions were made by dissolving a L(−)lactide/glycolide copolymer containing 65 mole % lactide and 35 mole % glycolide (4.5%) and calcium stearate (4.5%) in ethyl acetate. Then, the LAE stock solution was added to the coating solution at sequential concentrations and mixed thoroughly. The sutures were hand coated by dipping into the coating solution containing antimicrobial composition and then air dried at room temperature for 8 hr. The antimicrobial efficacy was evaluated by zone of inhibition assay, in which the sutures were cut into a 5 cm section and inoculated with about 10^5 cfu/suture in a Petri dish, a portion of 20 ml of TSA tempered at 47° C. was added into the Petri dish. The inoculum was mix thoroughly with the medium and the suture was placed in the middle of the plate. The inoculated plates were incubated at 37° C. for 48 hr and then the zone of inhibition was measured with a digital caliper.
as §1, with “DIMPTS. DIMPTS” for “LAE. LAE”, “DIMPTS” for “LAE”

[2] = tested on: C. albican; assay: In vitro antimicrobial efficacy, viable plate count after 24 hr culture; assay type: cell-based; conditions: 37° C. 24 hr, inoculum 10^6 CFU/ml
Procedure: (§2) The synergistic antimicrobial efficacy of the LAE and diiodomethyl-p-tolylsulfone ([…]) antimicrobial composition is illustrated by the results shown in Tables 1 and 2, and was determined by the following protocol. […] Sequential dilutions of the above two stock solutions were then prepared in sterile saline. […] Controls contained similar amounts of saline in the test culture with no LAE or […]. The test cultures were incubated at 37° C. for 24 hr, the total viable bacteria were numerated by plate count on Trypticase® soy agar (BBL) containing inactivating agent. The plates were incubated at 37° C. for 48 hr and reported as colony forming unit/ml (CFU/ml).

[3] = tested on: S. aureus; assay: as above; assay type: cell-based; conditions: 37° C. 24 hr, inoculum 10^6 CFU/ml
Procedure: as §2

[4] = tested on: P. aeruginosa; assay: as above; assay type: cell-based; conditions: 37° C. 24 hr, inoculum 10^6 CFU/ml
Procedure: as §2

[5] = tested on: E. faecium; assay: as above; assay type: cell-based; conditions: 37° C. 24 hr, inoculum 10^6 CFU/ml
Procedure: as §2

[6] = tested on: E. coli; assay: as above; assay type: cell-based; conditions: 37° C. 24 hr, inoculum 10^6 CFU/ml
Procedure: as §2

[7] = animals and humans; cited from earlier work
[8] = rats; cited from earlier work
[9] = tested on: S. aureus; assay: Zone of inhibition assay of coated sutures; assay type: cell-based; conditions: coated 2-0 polyglactin 910 suture, 37° C. 48 hr
Procedure: as §1
as §1, with “DIMPTS. DIMPTS” for “LAE. LAE”, “DIMPTS” for “LAE”
(§3) A series of USP standard size 2-0 uncoated polyglactin 910 sutures were coated with coating compositions containing the combinations of LAE and DIMPTS. DIMPTS and LAE stock solutions were made in ethanol at concentration of 10%. The coating solutions were made by dissolving a L(−)lactide/glycolide copolymer containing 65 mole % lactide and 35 mole % glycolide (4.5%) and calcium stearate (4.5%) in ethyl acetate. Then, the DIMPTS and LAE stock solutions were added to the coating solution at sequential concentrations and mixed thoroughly. The sutures were hand coated by dipping into the coating solution containing antimicrobial composition and then air dried at room temperature for 8 hr. The antimicrobial efficacy and synergistic effect were evaluated by zone of inhibition assay, in which the sutures were cut into a 5 cm section and inoculated with about 10^5 cfu/suture in a Petri dish, a portion of 20 ml of TSA tempered at 47° C. was added into the Petri dish. The inoculum was mix thoroughly with the medium and the suture was placed in the middle of the plate. The inoculated plates were incubated at 37° C. for 48 hr and then the zone of inhibition was measured with a digital caliper.

[10] = tested on: E. coli; assay: Zone of inhibition assay of coated sutures; assay type: cell-based; conditions: coated 2-0 polyglactin 910 suture, 37° C. 48 hr
Procedure: as §1
A series of USP standard size 2-0 uncoated polyglactin 910 sutures were coated with coating compositions containing DIMPTS. DIMPTS stock solution was made in ethanol at the concentration of 10%. The coating solutions were made by dissolving a L(−)lactide/glycolide copolymer containing 65 mole % lactide and 35 mole % glycolide (4.5%) and calcium stearate (4.5%) in ethyl acetate. Then, the DIMPTS stock solution was added to the coating solution at sequential concentrations and mixed thoroughly. The sutures were hand coated by dipping into the coating solution containing antimicrobial composition and then air dried at room temperature for 8 hr. The antimicrobial efficacy was evaluated by zone of inhibition assay, in which the sutures were cut into a 5 cm section and inoculated with about 10^5 cfu/suture in a Petri dish, a portion of 20 ml of TSA tempered at 47° C. was added into the Petri dish. The inoculum was mix thoroughly with the medium and the suture was placed in the middle of the plate. The inoculated plates were incubated at 37° C. for 48 hr and then the zone of inhibition was measured with a digital caliper.
as §3

CCCCCCCCCCCC(=O)N[C@@H](CCCN=C(N)N)C(=O)OCC.Cl [LAE, ethyl ester of the lauramide of the arginine monohydrochloride]
Zone of inhibition (mm) ([1]; 0.5% in coating solution): 0 mm
Zone of inhibition (mm) ([1]; 1% in coating solution): 2.3 mm
Zone of inhibition (mm) ([1]; 2% in coating solution): 3.5 mm
CFU/ml ([2]; 10 ppm): 6 × 10^7 CFU/ml
CFU/ml ([3]; 10 ppm): 1.1 × 10^9 CFU/ml
CFU/ml ([4]; 10 ppm): 1.2 × 10^9 CFU/ml
CFU/ml ([5]; 10 ppm): 5 × 10^7 CFU/ml
CFU/ml ([6]; 10 ppm): 1.1 × 10^9 CFU/ml
toxicity [7]: completely harmless
absorption and metabolism [8]: fast absorption and metabolism into naturally-occurring amino acids and the lauric acid
Zone of inhibition (mm) ([9]; 0.5% in coating solution): 0 mm
Zone of inhibition (mm) ([9]; 1% in coating solution): 1.5 mm
Zone of inhibition (mm) ([9]; 2% in coating solution): 3.2 mm
Zone of inhibition (mm) ([10]; 0.5% in coating solution): 0 mm
Zone of inhibition (mm) ([10]; 1% in coating solution): 1.0 mm
Zone of inhibition (mm) ([10]; 2% in coating solution): 2.0 mm

Cc1ccc(S(=O)(=O)C(I)I)cc1 [DIMPTS, diiodomethyl-p-tolylsulfone]
Zone of inhibition (mm) ([1]; 0.1% in coating solution): 3.3 mm
Zone of inhibition (mm) ([1]; 0.5% in coating solution): 3.6 mm
Zone of inhibition (mm) ([1]; 1% in coating solution): 8.4 mm
CFU/ml ([2]; 0.5 ppm): 1 × 10^8 CFU/ml
CFU/ml ([3]; 0.5 ppm): 1.2 × 10^9 CFU/ml
CFU/ml ([3]; 5 ppm): 2.4 × 10^6 CFU/ml
CFU/ml ([4]; 10 ppm): 1.0 × 10^9 CFU/ml
CFU/ml ([4]; 200 ppm): 4 × 10^8 CFU/ml
CFU/ml ([5]; 0.5 ppm): 6 × 10^8 CFU/ml
CFU/ml ([5]; 5 ppm): 3 × 10^8 CFU/ml
CFU/ml ([6]; 10 ppm): 1.4 × 10^9 CFU/ml
CFU/ml ([6]; 200 ppm): 1.1 × 10^5 CFU/ml
Zone of inhibition (mm) ([9]; 0.1% in coating solution): 0 mm
Zone of inhibition (mm) ([9]; 0.5% in coating solution): 3.0 mm
Zone of inhibition (mm) ([9]; 1% in coating solution): 4.3 mm
Zone of inhibition (mm) ([10]; 0.1% in coating solution): 0 mm
Zone of inhibition (mm) ([10]; 0.5% in coating solution): 0 mm
Zone of inhibition (mm) ([10]; 1% in coating solution): 1.0 mm

— US20060264347A1, “Antimicrobial composition” (priority 2005, published 2006)
